# Data from US20260262643A1, “HERBICIDAL BENZOXAZINES” (FMC CORPORATION, priority 2022, published 2026).
# Key:
# wheat [1] = test: Test C preemergence; type: in vivo, Triticum aestivum
# In short: (§1)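 Seeds sown in loam soil–sand blend received a directed preemergence soil spray of test chemical in non-phytotoxic solvent with surfactant; postemergence plants (2–10 cm, one- to two-leaf stage) were sprayed with the same formulation. Greenhouse-held 10 days, then visually rated for injury versus untreated controls, 0 (no effect) to 100 (complete control).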
# oat, wild [2] = test: Test C preemergence; type: in vivo, Avena fatua
# In short: as §1
# green foxtail [3] = test: Test C preemergence; type: in vivo, Setaria viridis
# In short: as §1
# soybean [4] = test: Test C preemergence; type: in vivo, Glycine max
# In short: as §1
# barnyardgrass [5] = test: Test D flooded paddy test; type: in vivo, Echinochloa crus-galli; settings: 250 g ai/ha, applied to paddy water, visual rating after 13 to 14 days, scale 0 to 100 (0 no effect, 100 complete control)
# In short: (§2)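 Plants at the 2-leaf stage were grown in pots flooded to 3 cm, and compound was applied directly into the paddy water, with depth kept throughout. After 13–14 days in a greenhouse, injury was rated visually against untreated controls on a 0–100 scale (100 = complete control); a dash means not tested.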
# rice = test: Test D flooded paddy test; type: in vivo, Oryza sativa; settings: 250 g ai/ha, applied to paddy water, visual rating after 13 to 14 days, scale 0 to 100 (0 no effect, 100 complete control)
# In short: as §2
# kochia [6] = test: Test C preemergence; type: in vivo, Bassia scoparia
# In short: as §1
# wheat [7] = test: Test C postemergence; type: in vivo, Triticum aestivum; settings: 10 days, 0 to 100 scale (0 no effect, 100 complete control)
# In short: as §1
# ragweed [8] = test: Test C postemergence; type: in vivo, Ambrosia artemisiifolia; settings: 10 days, 0 to 100 scale (0 no effect, 100 complete control)
# In short: as §1
# kochia [9] = test: Test C postemergence; type: in vivo, Bassia scoparia; settings: 10 days, 0 to 100 scale (0 no effect, 100 complete control)
# In short: as §1
# pigweed, palmer [10] = test: Test C postemergence; type: in vivo, Amaranthus palmeri; settings: 10 days, 0 to 100 scale (0 no effect, 100 complete control)
# In short: as §1
# blackgrass [11] = test: Test C preemergence; type: in vivo, Alopecurus myosuroides
# In short: as §1
# barnyardgrass [12] = test: Test C postemergence; type: in vivo, Echinochloa crusgalli; settings: 10 days, 0 to 100 scale (0 no effect, 100 complete control)
# In short: as §1
# pigweed, palmer [13] = test: Test C preemergence; type: in vivo, Amaranthus palmeri
# In short: as §1
# horseweed = test: Test C postemergence; type: in vivo, Erigeron canadensis; settings: 10 days, 0 to 100 scale (0 no effect, 100 complete control)
# In short: as §1
# ragweed [14] = test: Test C preemergence; type: in vivo, Ambrosia artemisiifolia
# In short: as §1
# corn [15] = test: Test C postemergence; type: in vivo, Zea mays; settings: 10 days, 0 to 100 scale (0 no effect, 100 complete control)
# In short: as §1
# oat, wild [16] = test: Test C postemergence; type: in vivo, Avena fatua; settings: 10 days, 0 to 100 scale (0 no effect, 100 complete control)
# In short: as §1
# soybean [17] = test: Test C postemergence; type: in vivo, Glycine max; settings: 10 days, 0 to 100 scale (0 no effect, 100 complete control)
# In short: as §1
# green foxtail [18] = test: Test C postemergence; type: in vivo, Setaria viridis; settings: 10 days, 0 to 100 scale (0 no effect, 100 complete control)
# In short: as §1
# ryegrass, Italian [19] = test: Test C preemergence; type: in vivo, Lolium multiflorum
# In short: as §1
# corn [20] = test: Test C preemergence; type: in vivo, Zea mays
# In short: as §1
# sedge, umbrella = test: Test D flooded paddy test; type: in vivo, Cyperus difformis; settings: 250 g ai/ha, applied to paddy water, visual rating after 13 to 14 days, scale 0 to 100 (0 no effect, 100 complete control)
# In short: as §2
# galium = test: Test C postemergence; type: in vivo, Galium aparine; settings: 10 days, 0 to 100 scale (0 no effect, 100 complete control)
# In short: as §1
# blackgrass [21] = test: Test C postemergence; type: in vivo, Alopecurus myosuroides; settings: 10 days, 0 to 100 scale (0 no effect, 100 complete control)
# In short: as §1
# ryegrass, Italian [22] = test: Test C postemergence; type: in vivo, Lolium multiflorum; settings: 10 days, 0 to 100 scale (0 no effect, 100 complete control)
# In short: as §1
# ducksalad = test: Test D flooded paddy test; type: in vivo, Heteranthera limosa; settings: 250 g ai/ha, applied to paddy water, visual rating after 13 to 14 days, scale 0 to 100 (0 no effect, 100 complete control)
# In short: as §2
# barnyardgrass [23] = test: Test C preemergence; type: in vivo, Echinochloa crusgalli
# In short: as §1
# [24] = 500 g ai/ha, preemergence, 0 to 100 scale (0 no effect, 100 complete control)
# [25] = Preemergence, 125 g ai/ha, 0 to 100 scale, 0 no effect, 100 complete control
smiles,measurement,setting,value
Cc1ccc(-n2cnc(C(C)C)n2)cc1C(=O)N1CC(C(F)(F)F)Oc2c(Cl)cccc21 (stereo not shown) [Compound 354],Wheat plant response rating,wheat [1]; [24],90
same,"Plant response rating, Wheat",wheat [1]; [25],30
same,"Oat, Wild plant response rating","oat, wild [2]; [24]",90
same,"Plant response rating, Oat, Wild","oat, wild [2]; [25]",80
same,"Foxtail, Green plant response rating",green foxtail [3]; [24],100
same,"Plant response rating, Foxtail, Green",green foxtail [3]; [25],100
same,Soybean plant response rating,soybean [4]; [24],100
same,"Plant response rating, Soybean",soybean [4]; [25],50
same,"Plant response rating, Barnyardgrass (Flood)",barnyardgrass [5],0
same,"Plant response rating, Rice (Flood)",rice,0
same,Kochia plant response rating,kochia [6]; [24],80
same,"Plant response rating, Kochia",kochia [6]; [25],0
same,"Plant response rating, Wheat","wheat [7]; 500 g ai/ha, postemergence",60
same,"Plant response rating, Wheat","wheat [7]; Postemergence, 125 g ai/ha",30
same,"Plant response rating, Ragweed","ragweed [8]; 500 g ai/ha, postemergence",70
same,"Plant response rating, Ragweed","ragweed [8]; Postemergence, 125 g ai/ha",50
same,"Plant response rating, Kochia","kochia [9]; 500 g ai/ha, postemergence",90
same,"Plant response rating, Kochia","kochia [9]; Postemergence, 125 g ai/ha",80
same,"Plant response rating, Pigweed, Palmer","pigweed, palmer [10]; 500 g ai/ha, postemergence",100
same,"Plant response rating, Pigweed, Palmer","pigweed, palmer [10]; Postemergence, 125 g ai/ha",80
same,Blackgrass plant response rating,blackgrass [11]; [24],90
same,"Plant response rating, Blackgrass",blackgrass [11]; [25],80
same,"Plant response rating, Barnyardgrass","barnyardgrass [12]; 500 g ai/ha, postemergence",70
same,"Plant response rating, Barnyardgrass","barnyardgrass [12]; Postemergence, 125 g ai/ha",30
same,"Pigweed, Palmer plant response rating","pigweed, palmer [13]; [24]",100
same,"Plant response rating, Pigweed, Palmer","pigweed, palmer [13]; [25]",100
same,"Plant response rating, Horseweed","horseweed; 500 g ai/ha, postemergence",80
same,"Plant response rating, Horseweed","horseweed; Postemergence, 125 g ai/ha",30
same,Ragweed plant response rating,ragweed [14]; [24],100
same,"Plant response rating, Ragweed",ragweed [14]; [25],10
same,"Plant response rating, Corn","corn [15]; 500 g ai/ha, postemergence",60
same,"Plant response rating, Corn","corn [15]; Postemergence, 125 g ai/ha",20
same,"Plant response rating, Oat, Wild","oat, wild [16]; 500 g ai/ha, postemergence",90
same,"Plant response rating, Oat, Wild","oat, wild [16]; Postemergence, 125 g ai/ha",60
same,"Plant response rating, Soybean","soybean [17]; 500 g ai/ha, postemergence",100
same,"Plant response rating, Soybean","soybean [17]; Postemergence, 125 g ai/ha",100
same,"Plant response rating, Foxtail, Green","green foxtail [18]; 500 g ai/ha, postemergence",90
same,"Plant response rating, Foxtail, Green","green foxtail [18]; Postemergence, 125 g ai/ha",40
same,"Ryegrass, Italian plant response rating","ryegrass, Italian [19]; [24]",100
same,"Plant response rating, Ryegrass, Italian","ryegrass, Italian [19]; [25]",90
same,Corn plant response rating,corn [20]; [24],40
same,"Plant response rating, Corn",corn [20]; [25],20
same,"Plant response rating, Sedge, Umbrella (Flood)","sedge, umbrella",0
same,"Plant response rating, Galium","galium; 500 g ai/ha, postemergence",100
same,"Plant response rating, Galium","galium; Postemergence, 125 g ai/ha",100
same,"Plant response rating, Blackgrass","blackgrass [21]; 500 g ai/ha, postemergence",20
same,"Plant response rating, Blackgrass","blackgrass [21]; Postemergence, 125 g ai/ha",0
same,"Plant response rating, Ryegrass, Italian","ryegrass, Italian [22]; 500 g ai/ha, postemergence",70
same,"Plant response rating, Ryegrass, Italian","ryegrass, Italian [22]; Postemergence, 125 g ai/ha",20
same,"Plant response rating, Ducksalad (Flood)",ducksalad,0
same,Barnyardgrass plant response rating,barnyardgrass [23]; [24],100
same,"Plant response rating, Barnyardgrass",barnyardgrass [23]; [25],90
